Measured values as given in patent US6146868A, “Glucuronoxylomannan (GXM)-O-acetylhydrolase of cryptococcus neoformans and uses thereof” (Research Development Foundation, priority 1999, dated 2000).

What was measured:
[1] = tested on: recombinant glucuronoxylomannan (GXM)-O-acetylhydrolase, SEQ ID No. 31 (His-tagged short clone expressed in E. coli); assay: PNP-acetate plate assay, kinetics (Km), recombinant enzyme; format: biochemical, mixed unknown bacterial culture from sewage; conditions: pH 7.2, A405 kinetic reading, hyperbolic regression, read-out: Km for PNP-acetate (KPNPA)
Procedure: PNP-Carboxyl Ester Assay: This assay determines specificity of enzymatic activity for five different PNP-fatty acid esters: PNP-acetate (2 carbon), PNP-propionate (3 carbon), PNP-butyrate (4 carbon), PNP-laurate (12 carbon), and PNP-palmitate (16 carbon). The assay was set up in a 96-well plate and read at 405 n m on a BIO-TEK Ceres 900 plate reader. Each reaction consisted of: 200 μl PBS buffer, pH 7.2; 50 μl PNP-ester solution, 0.77 mM; and 50 μl of enzyme (containing various levels of enzyme) added just prior to reading at 405 nm. Non-enzymic hydrolysis was measured in a solution that consisted of 200 μl PBS buffer, pH 7.2; 50 μl PNP-ester solution, 0.77 mM; and 50 μl PBS, pH 7.2, the buffer replacing the enzyme. […] This assay was read within 30 seconds in a single point manner as the enzyme works rapidly on this substrate.
PNP-Acetate Assay: This assay was routinely used to determine enzymatic activity in samples of recombinant enzyme at the various steps in its expression and purification as described above, but with the PNP-acetate substrate only. This reaction was measured at pH=6.2 to 8.2. […]
Kinetics: Kinetics of the enzyme were investigated through use of the PNP-acetate plate assay and the competition assay described above. The plates were read on the BIO-TEK Ceres 900 plate reader at 405 nm with a kinetic protocol that took readings every 20 seconds for 3 minutes. […]

[2] = tested on: native (wild-type) glucuronoxylomannan (GXM)-O-acetylhydrolase purified from mixed unknown bacterial culture; assay: PNP-acetate plate assay, kinetics (Km), native enzyme; format: biochemical, mixed unknown bacterial culture from sewage; conditions: pH 7.2, A405 kinetic reading, hyperbolic regression, read-out: Km for PNP-acetate (KPNPA)
Excerpt: Purification, LysC Degradation and Amino Acid Sequencing of Wild-Type Enzyme: The native GXM O-acetylhydrolase was purified from a mixed unknown bacterial culture that was collected from sewage. The purification was achieved by the following steps: cholate extraction, ammonium sulfate precipitation, molecular sieve chromatography, and ion exchange on a mono Q column followed by a mono S column.
PNP-Carboxyl Ester Assay: This assay determines specificity of enzymatic activity for five different PNP-fatty acid esters: PNP-acetate (2 carbon), PNP-propionate (3 carbon), PNP-butyrate (4 carbon), PNP-laurate (12 carbon), and PNP-palmitate (16 carbon). The assay was set up in a 96-well plate and read at 405 n m on a BIO-TEK Ceres 900 plate reader. Each reaction consisted of: 200 μl PBS buffer, pH 7.2; 50 μl PNP-ester solution, 0.77 mM; and 50 μl of enzyme (containing various levels of enzyme) added just prior to reading at 405 nm. Non-enzymic hydrolysis was measured in a solution that consisted of 200 μl PBS buffer, pH 7.2; 50 μl PNP-ester solution, 0.77 mM; and 50 μl PBS, pH 7.2, the buffer replacing the enzyme. Standard curves were obtained by measurement of the A405 of solutions of known amounts of para-nitrophenol. This assay was read within 30 seconds in a single point manner as the enzyme works rapidly on this substrate. […]

For CC(=O)Oc1ccc([N+](=O)[O-])cc1 [PNP-acetate], the Km [1] was 1340 µM and the Km [2] was 1260 µM.
